Assay results: patent US20140256015A1, “CAGED COMPOUND WHICH CAN BE PHOTOACTIVATED SELECTIVELY FOR CELL TYPES” (Toho University, priority 2013, published 2014)

Experiments:
[1] = UV spectrum (absorption wavelengths); format: physicochemical; conditions: 10^−5 M KMOPS solution (0.1% DMSO, pH 7.3)
Protocol: UV spectra were measured for the 10^−5 M KMOPS solution (0.1% DMSO, pH 7.3) of Gal-Bhcmoc-propargyl and the 10^−5 M KMOPS solution (0.1% DMSO, pH 7.3) of Bhcmoc-propargyl.

[2] = Photocleaving by 405 nm photoirradiation, monitored by C18 reverse phase HPLC; format: physicochemical; conditions: 10^−5 M KMOPS solution (0.1% DMSO, pH 7.3), irradiation 0 to 30 s (Bhcmoc-propargyl) or 0 to 300 s (Gal-Bhcmoc-propargyl)
Excerpt: The 10^−5 M KMOPS solution (0.1% DMSO, pH 7.3) of Gal-Bhcmoc-propargyl or Bhcmoc-propargyl was irradiated with light with 405 nm. The reaction progress was monitored over photoirradiation time by C18 reverse phase HPLC.

β-Gal = β-Gal (Escherichia coli, UniProt P00722); assay: Conversion of Gal-Bhcmoc-propargyl to Bhcmoc-propargyl in the presence of β-Gal, followed by HPLC; format: biochemical; conditions: 15 μM compound, β-Gal 0.25 ng/μL, 0.1 M phosphate buffer pH 7.3, 37° C., after 1 hour
β-Gal, sequence (P00722 2-1024): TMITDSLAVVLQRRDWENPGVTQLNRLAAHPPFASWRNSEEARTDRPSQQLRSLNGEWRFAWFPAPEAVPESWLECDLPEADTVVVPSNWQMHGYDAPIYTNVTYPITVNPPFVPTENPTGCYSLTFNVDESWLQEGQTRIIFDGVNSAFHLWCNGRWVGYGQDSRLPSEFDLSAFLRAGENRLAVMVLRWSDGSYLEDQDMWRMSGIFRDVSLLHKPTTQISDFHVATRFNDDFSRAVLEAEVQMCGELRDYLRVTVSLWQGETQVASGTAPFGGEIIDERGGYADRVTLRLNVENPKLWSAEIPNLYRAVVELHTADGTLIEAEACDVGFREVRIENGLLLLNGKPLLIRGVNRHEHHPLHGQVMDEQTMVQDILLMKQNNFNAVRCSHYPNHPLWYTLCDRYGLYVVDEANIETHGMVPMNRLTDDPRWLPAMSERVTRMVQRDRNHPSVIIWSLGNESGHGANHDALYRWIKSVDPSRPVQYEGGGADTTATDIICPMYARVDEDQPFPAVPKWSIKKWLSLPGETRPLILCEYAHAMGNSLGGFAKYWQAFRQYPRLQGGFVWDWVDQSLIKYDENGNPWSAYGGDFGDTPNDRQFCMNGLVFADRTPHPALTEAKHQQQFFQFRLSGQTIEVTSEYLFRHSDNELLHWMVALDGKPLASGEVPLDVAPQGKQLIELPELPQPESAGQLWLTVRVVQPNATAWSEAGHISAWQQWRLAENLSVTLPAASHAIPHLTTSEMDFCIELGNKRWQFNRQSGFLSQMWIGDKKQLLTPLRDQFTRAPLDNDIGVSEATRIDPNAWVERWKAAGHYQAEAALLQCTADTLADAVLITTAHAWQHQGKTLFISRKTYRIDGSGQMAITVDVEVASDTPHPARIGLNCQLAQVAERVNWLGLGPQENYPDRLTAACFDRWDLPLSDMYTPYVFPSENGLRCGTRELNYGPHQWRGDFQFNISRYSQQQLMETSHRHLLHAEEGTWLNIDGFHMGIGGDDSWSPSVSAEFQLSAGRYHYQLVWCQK
Protocol: To 0.1 M phosphate buffer (pH 7.3) containing Gal-Bhcmoc-propargyl (final concentration of 15 μM), mercaptoethanol (0.11 M), and magnesium chloride (1 mM), β-Gal was added to a final concentration of 0.25 ng/μL. While the reaction solution was kept at 37° C., the reaction progress was followed by HPLC (see Table 2 for analytical conditions).

Row | Structure (SMILES) | εmax [1] | λmax [1] | photocleaving (decrease of compound) on 405-nm photoirradiation [2] | conversion to Bhcmoc-propargyl (Bhc group) by β-Gal (β-Gal)
1 | C#CCNC(=O)OCc1cc(=O)oc2cc(O)c(Br)cc12 [Bhcmoc-propargyl, (6-bromo-7-hydroxycoumarin-4-yl)methoxycarbonylpropargylamide] | 17400 M⁻¹ cm⁻¹ | 369 nm | decreases in Bhcmoc-propargyl and increases in the photocleaved product could be confirmed | 
2 | C#CCNC(=O)OCc1cc(=O)oc2cc(O[C@@H]3O[C@H](CO)[C@H](O)[C@H](O)[C@H]3O)c(Br)cc12 [Gal-Bhcmoc-propargyl] |  |  | no decrease was confirmed | completely converted
